Measurements as given in PubChem BioAssay (NCI).
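All cell lines were grown in 96-well plates and treated with compound for 48 hours. At the TGI there is no net growth.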

Assays:
Experiment in all cases: NCI tumour cell line growth inhibition, 48 h
[1] = tested on: OVCAR-5 ovarian
[2] = tested on: SNB-75 CNS
[3] = tested on: MDA-N
[4] = tested on: HCT-15 colon
[5] = tested on: SN12C renal
[6] = tested on: OVCAR-3 ovarian
[7] = tested on: RXF 393 renal
[8] = tested on: NCI-H226 lung
[9] = tested on: BT-549 breast

Row | Structure (SMILES) | TGI [1] | TGI [2] | TGI [3] | TGI [4] | TGI [5] | TGI [6] | TGI [7] | TGI [8] | TGI [9]
1 | Cc1sc2c(c1C)/C(=N\O)c1cccn1-2 | > 100 µM | 41.1 µM | > 100 µM | > 100 µM | > 100 µM | > 100 µM | 65.5 µM | > 100 µM | > 100 µM
2 | OCCN(/N=C\c1ccc2ccccc2c1)C1=NCCN1 | 72.2 µM | > 100 µM | 32.4 µM | > 100 µM | > 100 µM | > 100 µM | 36.1 µM | 36.1 µM | > 100 µM
3 | Nc1nc(Cl)cc(NC2(CO)CCC2)n1 | > 100 µM | > 100 µM | > 100 µM | > 100 µM | > 100 µM | > 100 µM | > 100 µM | > 100 µM | > 100 µM
4 | COc1cc(OC)c2c3c(OC)cc(OC)c4c(=O)c(O)c(C[C@@H](C)O)c(c5c(C[C@@H](C)O)c(O)c(=O)c1c25)c43 | > 100 µM | 62.1 µM | 34 µM | 44.4 µM | 68.6 µM | 9.4 µM | 73.1 µM | 44.7 µM | 46 µM
5 | Cc1cc(=O)n2nc(CCl)sc2n1 | 28.9 µM | 28.6 µM | 27.7 µM | 27.1 µM | 35 µM | 28.4 µM | 20.8 µM | 34.9 µM | 17.5 µM
6 | CCCCCCCCCCCC[C@@H](O)[C@H]1CCC([C@H](O)CCCCC(=O)CCCCCCCC2=C[C@H](C)OC2=O)O1 (some centres not stated) | > 50 µM | > 50 µM | > 50 µM | > 50 µM | > 50 µM | > 50 µM | > 30.2 µM | > 50 µM | > 50 µM
7 | Nc1[nH]nc2nc3ccccc3nc12 | > 100 µM | > 100 µM | > 100 µM | > 100 µM | > 100 µM | > 100 µM | 87.9 µM | > 100 µM | > 100 µM
8 | COc1ccc(N=NC(=O)NC(CC(C)C)C(N)=O)cc1 (configuration not stated) | > 100 µM | > 100 µM | > 31.6 µM | > 31.6 µM | > 31.6 µM | > 100 µM | > 31.6 µM | > 100 µM | > 100 µM
9 | CCOC(=O)C(NC(=O)c1ccccc1)(N1CCN(c2cc3c(cc2F)c(=O)c(C(=O)O)cn3CC)CC1)C(F)(F)F (configuration not stated) | 45.3 µM | 90 µM | > 100 µM | 64.9 µM | > 100 µM | > 100 µM | > 100 µM | 90.7 µM | > 100 µM
10 | NC1=Nc2cc(Cl)ccc2Sc2nc3ccccc3n21 | > 100 µM | > 86.4 µM | > 100 µM | > 100 µM | > 100 µM | > 100 µM | > 100 µM | > 100 µM | > 100 µM
11 | CC(=O)Oc1c(N2CCCCC2)c(C(=O)c2ccccc2)c(O)c2ccn(N(C)C)c12 | > 100 µM | 32.5 µM | 35.3 µM | 35.9 µM | 33.7 µM | 74.7 µM | 48.4 µM | 32.4 µM | 42.7 µM
12 | CC(=O)Oc1c2c(c3n(c1=O)CCCC3)C(=O)N(c1ccccc1)C2=O | > 100 µM | > 100 µM | > 100 µM | > 100 µM | > 100 µM | > 100 µM | > 100 µM | > 100 µM | > 100 µM
13 | O=C(CCC=C(S(=O)(=O)c1ccccc1)S(=O)(=O)c1ccccc1)c1ccccc1 | 24 µM | 9.57 µM | 14.8 µM | 20.8 µM | 13.1 µM | 17.4 µM | 20 µM | 37.3 µM | 18.2 µM
14 | CCOC(=O)C(Cc1ccc(OC(=O)OC(C)(C)C)cc1)NC(=O)OC(C)(C)C (configuration not stated) | > 100 µM | 62.6 µM | > 100 µM | > 100 µM | > 100 µM | > 100 µM | > 100 µM | > 100 µM | > 100 µM
15 | COc1cc2c3c(n(C)c(=O)c2cc1OC)-c1cc2c(cc1/C3=C\CCCI)OCO2 | > 100 µM | > 52 µM | > 100 µM | > 100 µM | > 100 µM | > 100 µM | > 100 µM | > 100 µM | > 100 µM
16 | N=c1c2c(=S)n(-c3ccccc3)c(=S)n(-c3ccccc3)c2nc(SCCN2CCCC2)n1-c1ccccc1 | 32.1 µM | 8.29 µM | 4.36 µM | 3.86 µM | 3.46 µM | 3.38 µM | 2.94 µM | 18.4 µM | 5.13 µM
17 | Cc1ccc(C(=O)Nc2ccc(CP(=O)(O)O)cc2CP(=O)(O)O)cc1NC(=O)Nc1cc(C(=O)Nc2ccc(CP(=O)(O)O)cc2CP(=O)(O)O)ccc1C | > 100 µM | > 100 µM | > 100 µM | > 100 µM | > 100 µM | > 100 µM | > 100 µM | > 100 µM | > 100 µM
18 | CC(C)=CCc1[nH]c2ccccc2c1C1=C(O)C(=O)C(c2c(CC=C(C)C)[nH]c3ccccc23)=C(O)C1=O | 8.44 µM | 4.14 µM | 11.5 µM | 3.48 µM | 4.79 µM | 3.92 µM | 8.17 µM | 4.6 µM | 1.59 µM
